Reference: publication PMC12281424, “A Rac-specific competitive inhibitor of guanine nucleotide binding reduces metastasis in triple-negative breast cancer” (Cell Reports Medicine, 2025)

Columns and labels:
LIMK1(h) = LIMK1(h) (Homo sapiens, UniProt P53667); experiment: Kinase Profiler; assay type: biochemical
Protocol: (§4) The kinase profiler was performed by the company Eurofins (Discovery, Panlab and Cerep).

[1] = tested on: RAC1-GTP levels in MDA-MB-468 Luc cells; experiment: RAC-GTP immunofluorescence; assay type: cell-based
Protocol: Luciferase (Luc, green) was used to detect the cells. […] (C) Quantification of colony number of indicated cancer cell lines in the presence of A41 (10 μM) expressed as the percentage of control in the absence of A41. […] (D) Immunoblot analysis and corresponding quantification of AKT and P44/42 expression and phosphorylation (pAKT, p44/42) in MDA-MB-468 Luc cells in the absence (−) and presence of NSC23766 or A41 (1 h at 10^−5 M). […] (E) 3D invasion assay of MDA-MB-468 Luc and cancer-associated fibroblasts (CAFs) and corresponding quantification (scale bars: 200 μm).
After indicated treatments, cells were fixed with 4% paraformaldehyde and permeabilized in PBS 0.5% Triton X-100. To assess RAC1 activity, cells were then incubated with RAC-GTP antibody (26903, NewEast Biosciences, King of Prussia, Pa) (dilution 1/500) overnight at room temperature, followed by secondary Alexa 568-labeled anti-mouse antibody (dilution 1/1000). Cancer cells were detected with firefly luciferase antibody (ab21176, Abcam) (dilution 1/500) overnight at room temperature, followed by secondary Alexa 488-labeled anti-rabbit antibody (dilution 1/1000). To assess cytoskeleton organization, cells were incubated with Alexa Fluor 488 phalloidin (A12379, Invitrogen) to visualize F-actin. After staining, cells were mounted in Prolong gold antifade reagent with DAPI and images were captured by a fluorescence microscope.

AMPKα1(h) = AMPKα1(h) (Homo sapiens, UniProt Q13131); experiment: Kinase Profiler; assay type: biochemical
Protocol: (§5) Blood cell counts, kinase profiler, safety screen, bacterial cytotoxicity, Ames, micronucleus assays were performed by the company Eurofins (France). The kinase profiler was performed by the company Eurofins (Discovery, Panlab and Cerep).

DCAMKL1(h) = DCAMKL1(h) (Homo sapiens, UniProt O15075); experiment: Kinase Profiler; assay type: biochemical
Protocol: as §5

Abl(h) = Abl(h) (Homo sapiens, UniProt P00519); experiment: Kinase Profiler; assay type: biochemical
Protocol: as §4

RAC2 = target: T1, RAC2 (Homo sapiens, UniProt P15153); experiment: GEF-stimulated nucleotide exchange; assay type: biochemical; parameters: dose or concentration left out as unconfirmed
T1 construct: Full-length RAC2, RHOG, RHOA and CDC42 were purified as previously described; made in house
From the text: (§1) Figure 4 A41 selectively impairs RAC protein activation (A) Representative surface plasmon resonance (SPR) sensograms of binding of immobilized RHOA or CDC42 with indicated increasing concentrations of A41 (N > 3). (B) Effect of A41 on GEF-stimulated RAC2, RHOG, RHOA, and CDC42 nucleotide exchange. […] Kobs is expressed as mean ± SEM. ∗p < 0.001 vs. control. (C) Effect of A41 on RAC1 G30S activation. […] The GEF TRIO was used to induce nucleotide exchange (N = 3). Data are expressed as mean ± SEM. (D) Immunoblot analysis and associated quantification of RAC-GTP level and total RAC expression in NIH-3T3 fibroblasts expressing RAC wild-type (RAC1 WT) or RAC1 oncomutants (RAC1 P29S and RAC1b) in the absence (Ctrl) and presence of A41 (10 μM). RAC activation was measured as the ratio of RAC-GTP to total RAC and expressed relative to Ctrl condition. Data are presented as mean ± SEM. ∗∗∗p < 0.001 vs. controls.
(§2) Full-length RAC1 carrying a 6xHis tag in C-terminus was purified as previously described.[64] […] Specific exchange activity toward RHOA determined by fluorescence kinetics is 0.04 s^−1M^−1.
(§3) Nucleotide exchange kinetics were measured by recording the increase in fluorescence following the association of mant-GTP on GDP-bound RHO protein or the decay in fluorescence following the dissociation of mant-GDP pre-loaded onto the RHO protein (λEx = 360 nm, λEm = 440 nm) as previously described.[39] […]

RHOG = target: T2, RHOG (Homo sapiens, UniProt P84095); experiment: GEF-stimulated nucleotide exchange; assay type: biochemical; parameters: dose or concentration left out as unconfirmed
T2 construct: Full-length RAC2, RHOG, RHOA and CDC42 were purified as previously described; made in house
From the text: as §1, §2, §3

TrkC(h) = TrkC(h) (Homo sapiens, UniProt Q16288); experiment: Kinase Profiler; assay type: biochemical
TrkC(h), sequence (Q16288 32-839): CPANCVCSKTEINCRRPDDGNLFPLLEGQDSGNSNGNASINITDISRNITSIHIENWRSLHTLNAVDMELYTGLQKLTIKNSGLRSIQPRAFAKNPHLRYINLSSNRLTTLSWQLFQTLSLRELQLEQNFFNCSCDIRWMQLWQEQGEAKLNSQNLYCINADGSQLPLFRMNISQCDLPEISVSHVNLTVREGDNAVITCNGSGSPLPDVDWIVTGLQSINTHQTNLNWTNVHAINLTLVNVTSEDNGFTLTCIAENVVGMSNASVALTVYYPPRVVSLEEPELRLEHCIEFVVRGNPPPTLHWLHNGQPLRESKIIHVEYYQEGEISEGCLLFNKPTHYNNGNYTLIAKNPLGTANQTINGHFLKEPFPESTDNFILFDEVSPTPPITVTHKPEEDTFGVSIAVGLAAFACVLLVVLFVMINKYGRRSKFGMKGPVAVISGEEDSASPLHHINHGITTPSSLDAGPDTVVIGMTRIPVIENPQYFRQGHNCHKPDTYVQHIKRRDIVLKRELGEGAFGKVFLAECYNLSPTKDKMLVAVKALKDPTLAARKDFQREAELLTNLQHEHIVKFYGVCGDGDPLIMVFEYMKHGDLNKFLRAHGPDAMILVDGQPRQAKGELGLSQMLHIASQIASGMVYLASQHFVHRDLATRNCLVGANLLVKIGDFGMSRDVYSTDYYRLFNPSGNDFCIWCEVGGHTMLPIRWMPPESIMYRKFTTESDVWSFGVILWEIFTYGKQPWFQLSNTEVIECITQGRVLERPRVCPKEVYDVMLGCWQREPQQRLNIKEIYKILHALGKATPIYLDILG
Protocol: as §4

DCAMKL1(h), sequence (O15075 whole entry): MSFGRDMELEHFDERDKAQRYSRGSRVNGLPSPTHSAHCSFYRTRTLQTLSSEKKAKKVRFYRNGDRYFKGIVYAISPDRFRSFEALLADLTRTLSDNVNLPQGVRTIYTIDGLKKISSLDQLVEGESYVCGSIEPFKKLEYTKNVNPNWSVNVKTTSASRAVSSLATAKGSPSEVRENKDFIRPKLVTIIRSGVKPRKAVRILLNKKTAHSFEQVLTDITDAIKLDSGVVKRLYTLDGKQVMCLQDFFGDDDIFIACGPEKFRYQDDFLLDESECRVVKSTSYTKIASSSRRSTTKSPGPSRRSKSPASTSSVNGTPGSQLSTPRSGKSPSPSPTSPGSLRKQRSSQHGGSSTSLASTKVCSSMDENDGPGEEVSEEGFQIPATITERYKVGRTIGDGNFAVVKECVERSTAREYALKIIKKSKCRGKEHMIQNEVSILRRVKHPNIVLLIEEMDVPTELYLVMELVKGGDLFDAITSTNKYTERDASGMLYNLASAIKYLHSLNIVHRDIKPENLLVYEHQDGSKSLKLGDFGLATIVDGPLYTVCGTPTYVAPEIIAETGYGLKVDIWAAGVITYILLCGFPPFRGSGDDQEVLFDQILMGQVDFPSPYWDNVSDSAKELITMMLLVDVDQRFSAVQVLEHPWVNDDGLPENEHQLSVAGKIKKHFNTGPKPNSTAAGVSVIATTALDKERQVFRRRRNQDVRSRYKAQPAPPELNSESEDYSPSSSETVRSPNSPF
AMPKα1(h), sequence (Q13131 whole entry): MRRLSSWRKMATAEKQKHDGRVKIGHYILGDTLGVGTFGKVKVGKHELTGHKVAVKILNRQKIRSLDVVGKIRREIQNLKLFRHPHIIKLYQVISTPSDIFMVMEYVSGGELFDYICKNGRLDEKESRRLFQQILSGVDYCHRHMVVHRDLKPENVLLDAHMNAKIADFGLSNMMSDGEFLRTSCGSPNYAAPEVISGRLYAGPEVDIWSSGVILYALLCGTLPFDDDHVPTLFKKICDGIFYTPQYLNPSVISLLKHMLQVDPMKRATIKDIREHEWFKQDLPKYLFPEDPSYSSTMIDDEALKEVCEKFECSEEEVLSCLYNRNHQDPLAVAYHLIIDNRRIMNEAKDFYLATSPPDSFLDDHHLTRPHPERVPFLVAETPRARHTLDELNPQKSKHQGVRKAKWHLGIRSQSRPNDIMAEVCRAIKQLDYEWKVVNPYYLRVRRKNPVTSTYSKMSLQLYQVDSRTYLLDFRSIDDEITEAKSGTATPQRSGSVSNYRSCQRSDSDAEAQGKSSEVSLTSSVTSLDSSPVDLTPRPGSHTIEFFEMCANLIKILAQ
AMPKα1(h), sequence (Q9Y478 whole entry partner): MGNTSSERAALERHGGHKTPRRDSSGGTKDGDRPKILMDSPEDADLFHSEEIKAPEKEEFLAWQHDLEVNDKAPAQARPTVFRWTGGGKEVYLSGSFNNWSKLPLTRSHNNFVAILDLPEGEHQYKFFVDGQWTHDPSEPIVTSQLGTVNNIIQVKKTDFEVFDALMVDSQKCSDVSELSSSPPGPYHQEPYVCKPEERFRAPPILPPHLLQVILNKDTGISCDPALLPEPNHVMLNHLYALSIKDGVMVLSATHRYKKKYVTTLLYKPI
AMPKα1(h), sequence (P54619 whole entry partner): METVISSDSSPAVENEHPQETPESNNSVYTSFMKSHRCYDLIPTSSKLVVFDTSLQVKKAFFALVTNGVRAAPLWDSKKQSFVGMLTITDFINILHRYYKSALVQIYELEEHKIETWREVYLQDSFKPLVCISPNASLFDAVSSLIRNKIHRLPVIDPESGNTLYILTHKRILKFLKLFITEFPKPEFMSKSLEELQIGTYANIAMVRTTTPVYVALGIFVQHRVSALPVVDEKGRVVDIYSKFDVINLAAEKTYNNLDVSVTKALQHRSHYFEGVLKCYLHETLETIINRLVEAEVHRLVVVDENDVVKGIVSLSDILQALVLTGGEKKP
T2 sequence (P84095 whole entry): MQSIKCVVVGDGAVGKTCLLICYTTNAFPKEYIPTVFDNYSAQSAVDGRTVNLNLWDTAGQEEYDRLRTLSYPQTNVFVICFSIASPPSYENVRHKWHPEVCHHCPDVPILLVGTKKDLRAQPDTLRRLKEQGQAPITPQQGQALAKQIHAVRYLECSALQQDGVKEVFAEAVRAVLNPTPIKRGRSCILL
Abl(h), sequence (P00519 whole entry): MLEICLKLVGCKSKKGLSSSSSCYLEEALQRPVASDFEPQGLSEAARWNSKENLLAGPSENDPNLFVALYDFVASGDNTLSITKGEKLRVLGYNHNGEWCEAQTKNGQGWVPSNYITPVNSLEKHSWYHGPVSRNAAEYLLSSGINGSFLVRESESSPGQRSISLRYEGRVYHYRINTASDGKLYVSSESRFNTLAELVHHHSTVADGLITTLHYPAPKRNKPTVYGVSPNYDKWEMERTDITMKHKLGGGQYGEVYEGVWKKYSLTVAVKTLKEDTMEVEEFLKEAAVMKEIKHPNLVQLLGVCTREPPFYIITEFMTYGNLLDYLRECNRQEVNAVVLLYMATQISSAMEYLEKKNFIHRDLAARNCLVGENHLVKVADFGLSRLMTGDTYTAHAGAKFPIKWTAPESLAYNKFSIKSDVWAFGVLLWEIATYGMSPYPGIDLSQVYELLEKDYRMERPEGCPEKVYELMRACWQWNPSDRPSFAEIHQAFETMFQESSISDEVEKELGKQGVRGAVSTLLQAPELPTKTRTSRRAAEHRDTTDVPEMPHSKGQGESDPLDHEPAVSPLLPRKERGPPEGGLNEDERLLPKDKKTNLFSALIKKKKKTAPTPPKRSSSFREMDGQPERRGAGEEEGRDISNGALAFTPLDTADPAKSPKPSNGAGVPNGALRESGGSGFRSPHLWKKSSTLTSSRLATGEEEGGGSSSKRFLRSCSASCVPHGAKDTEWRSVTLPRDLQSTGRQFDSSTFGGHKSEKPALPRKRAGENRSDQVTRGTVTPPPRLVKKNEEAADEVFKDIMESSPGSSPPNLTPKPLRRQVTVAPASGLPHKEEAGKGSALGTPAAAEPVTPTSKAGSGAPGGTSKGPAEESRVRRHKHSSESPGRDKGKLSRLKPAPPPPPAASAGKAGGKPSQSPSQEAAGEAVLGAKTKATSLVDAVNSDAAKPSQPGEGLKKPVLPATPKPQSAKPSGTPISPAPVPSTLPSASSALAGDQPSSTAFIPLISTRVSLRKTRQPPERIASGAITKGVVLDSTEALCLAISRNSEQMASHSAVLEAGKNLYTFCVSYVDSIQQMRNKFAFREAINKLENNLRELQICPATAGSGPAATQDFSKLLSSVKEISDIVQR
LIMK1(h), sequence (P53667 whole entry): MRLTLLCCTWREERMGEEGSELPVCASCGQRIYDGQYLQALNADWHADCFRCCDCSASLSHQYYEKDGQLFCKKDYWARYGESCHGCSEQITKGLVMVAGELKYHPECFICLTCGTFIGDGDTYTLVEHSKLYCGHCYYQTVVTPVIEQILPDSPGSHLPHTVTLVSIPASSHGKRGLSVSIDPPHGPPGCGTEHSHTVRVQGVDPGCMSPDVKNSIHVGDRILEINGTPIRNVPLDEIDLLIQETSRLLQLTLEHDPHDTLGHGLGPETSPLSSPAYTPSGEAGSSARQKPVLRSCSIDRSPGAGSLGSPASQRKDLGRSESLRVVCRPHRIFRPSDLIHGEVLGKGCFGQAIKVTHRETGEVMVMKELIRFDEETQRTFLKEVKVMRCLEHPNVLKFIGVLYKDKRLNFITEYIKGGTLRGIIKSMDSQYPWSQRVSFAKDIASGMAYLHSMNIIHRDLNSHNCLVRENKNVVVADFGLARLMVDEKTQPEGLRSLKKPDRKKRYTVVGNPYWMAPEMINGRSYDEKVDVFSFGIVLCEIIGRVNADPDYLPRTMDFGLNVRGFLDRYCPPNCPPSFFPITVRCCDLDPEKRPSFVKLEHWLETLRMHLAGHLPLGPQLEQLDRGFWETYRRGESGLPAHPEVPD

COc1ccc(OC)c(NS(=O)(=O)c2ccc(NC(=O)CCSc3ccc(C)cc3)cc2)c1 [Compound A41]
Activity(%) (LIMK1(h)): 113% | decrease of active RAC1-GTP levels ([1]; 10^-5 M, 1 h): more than 50% | IC50 ([1]; dose-response curve, Figure 5A): 810 nM | Activity(%) (AMPKα1(h)): 102% | Activity(%) (DCAMKL1(h)): 99% | Activity(%) (Abl(h)): 90% | TRIO-induced activation of RAC2 (RAC2): reduced | TRIO-induced RHOG activation (RHOG): no effect | Activity(%) (TrkC(h)): 104%
